ChEMBL document CHEMBL4325849, “Identification of potential antivirulence agents by substitution-oriented screening for inhibitors of Streptococcus pyogenes sortase A” (Eur J Med Chem, 2019)
Activity calls are given as the source filed them. No cut-off for these calls is given here.

tested on: Streptococcus pyogenes; assay: (§1) Inhibition of Streptococcus pyogenes SrtA deltaN81 mutant expressed in Escherichia coli BL21(DE3) using Abz-LPETA-Dap(Dnp) as substrate preincubated for 10 mins followed by substrate addition measured every min for 2.5 hrs by fluorimetric assay

Row | SMILES | inhibition
1 | Nc1[nH]c2ccccc2c1C(=O)N1CCOCC1 | inactive
2 | Nc1[nH]c2ccccc2c1C(=O)N1CCCCC1 | inactive
3 | O=C(Nc1[nH]c2ccccc2c1C(=O)N1CCOCC1)c1ccccc1 | inactive

tested on: not listed separately; assay: as §1

Row | SMILES | IC50 [µM]
4 | Nc1[nH]c2cc(Cl)ccc2c1C(=O)N1CCOCC1 | 10

tested on: Streptococcus pyogenes; assay: Mixed-type inhibition of Streptococcus pyogenes SrtA deltaN81 mutant expressed in Escherichia coli BL21(DE3) at 5 to 10 uM using Abz-LPETA-Dap(Dnp) as substrate preincubated for 10 mins followed by substrate addition measured every min for 2 hrs by fluorimetric assay relative to control

Row | SMILES | inhibition
5 | Nc1[nH]c2cc(Cl)ccc2c1C(=O)N1CCOCC1 | Active

tested on: Streptococcus pyogenes; assay: Inhibition of Streptococcus pyogenes SrtA deltaN81 mutant expressed in Escherichia coli BL21(DE3) at 100 uM using Abz-LPETA-Dap(Dnp) as substrate preincubated for 10 mins followed by substrate addition measured every min for 2.5 hrs by fluorimetric assay relative to control

Row | SMILES | inhibition [%]
6 | O=Cc1ccc2[nH]ccc2c1 | 11.3
7 | Cn1c(C(=O)O)cc2ccccc21 | 8.2
8 | NC(Cc1c[nH]c2ccccc12)C(=O)O (stereo not drawn) | 5.5
9 | COC(=O)c1cc2ccc(Cl)cc2[nH]1 | 28.2
10 | O=C(O)c1[nH]c2cc(Cl)ccc2c1C(=O)Cc1ccc(Cl)cc1 | 28.3
11 | O=Cc1nc2ccc(Cl)cc2[nH]1 | 19.9
12 | COc1cc(NS(=O)(=O)c2ccc(N)cc2)ncn1 | 12
13 | Nc1c(C(=O)N2CCOCC2)cnn1Cc1ccccc1 | 1
14 | CCOC(=O)c1[nH]c2cc(Cl)ccc2c1C(=O)CCC(=O)OC | 23.8
15 | Nc1[nH]c2ccccc2c1C(=O)NCCc1ccc(Cl)cc1Cl | 54.8
16 | c1ccc2c3c([nH]c2c1)CNCC3 | 10.1
17 | O=[N+]([O-])c1cccc2[nH]ccc12 | 21.2
18 | O=C(O)CCC(=O)c1ccc2ccccc2c1 | 86.6
19 | O=C(O)c1cc2ccccc2[nH]1 | 4.5
20 | O=C(O)CCC(=O)c1cccs1 | 9.8
21 | O=c1c2cc3cc(Cl)ccc3nc2ncn1N1CCCCC1 | 42.2
22 | CCOC(=O)c1cc2ccccc2[nH]1 | 16.4
23 | Nc1ccc(S(=O)(=O)Nc2ccccn2)cc1 | 3.8
24 | O=C(O)c1cccs1 | 1.4
25 | COc1ccc(CCNC(=O)c2cnn(-c3ccccc3)c2N)cc1OC | 4.6
26 | O=C(O)c1cc2cc(Cl)ccc2[nH]1 | 9.1
27 | NCCc1c[nH]c2ccccc12 | -5.3
28 | Nc1[nH]c2cc(C(F)(F)F)ccc2c1C(=O)NC1CCCCC1 | -6.3
29 | CCOC(=O)c1[nH]c2cc(Cl)ccc2c1N | 12.8

Row | SMILES | inhibition [%]
30 | CCC(=O)N1CCN(c2ncccn2)CC1 | 11.6
31 | Nc1[nH]c2cc(Cl)ccc2c1C(=O)N1CCOCC1 | 91.6
32 | O=c1cc[nH]c(=O)[nH]1 | 2.7
33 | Cn1c2c(c3ccccc31)C(=O)NCC2 | 20.5
34 | O=C(c1cccs1)N1CCN(c2ncccn2)CC1 | 10.2
35 | CC(=O)NCCc1c[nH]c2ccc(O)cc12 | 10.8
36 | CCOC(=O)NCCc1c[nH]c2ccc(OC)cc12 | 11.7
37 | O=C1CCN2c3ccccc3Sc3ccc(Cl)c1c32 | 11.1
38 | Oc1ccc2ncccc2c1 | 115
39 | CCOC(=O)c1[nH]c2cc(Cl)ccc2c1C=O | 25.7
40 | O=C(O)Cc1c[nH]c2ccccc12 | 8.6
41 | Nc1[nH]c2cc(Cl)ccc2c1C(=O)NCCc1ccc(Cl)cc1 | 91.9
42 | COc1cccc2c3c(ccc12)NC(=O)CC3 | 54.2
43 | Nc1[nH]c2ccccc2c1C(=O)NC1CC1 | 29.2
44 | O=Cc1ccc[nH]1 | 3.2
45 | Cc1ccc(S(=O)(=O)/N=C/c2cc3ccc(Cl)cc3[nH]2)cc1 | 8.8
46 | CCOC(=O)c1[nH]c2cc(Cl)ccc2c1C(=O)O | 26.3
47 | O=Cc1c[nH]c2ccccc12 | 1.5
48 | O=C(O)c1ccc2ccccc2n1 | 23.1
49 | O=C(O)Cc1c[nH]cn1 | -7.6
50 | COc1ccc(C(O)c2[nH]c3ccccc3c2CCN)cc1 (stereo not drawn) | 60.8
51 | CC(C)NCC(O)COc1cccc2ccccc12 (stereo not drawn) | -4.2
52 | COC(=O)c1cc2ccccc2[nH]1 | 5.1
53 | CCOC(=O)c1[nH]c2cc(Cl)ccc2c1C#Cc1ccccc1 | 118

Row | SMILES | inhibition [%]
54 | CCC(=O)c1cccs1 | 0.1
55 | CCOC(=O)c1cc2ccc(Cl)cc2[nH]1 | 15
56 | COC(=O)c1ccnc(C(=O)OC)c1 | 5.5
57 | NNC(=O)c1ccnc(C(=O)NN)c1 | 3
58 | O=C(O)CCC(=O)c1c(C(=O)O)[nH]c2cc(Cl)ccc12 | 15.1
59 | COc1ccc2[nH]cc(CCNC(C)=O)c2c1 | 16
60 | N#CCC(=O)c1c[nH]c2cc(F)ccc12 | 10.7
61 | Nc1ncccn1 | 7.5
62 | O=Cc1c[nH]c2ccc(Cl)cc12 | 12.3
63 | CCCN1CCOC2c3c(ccc4[nH]ccc34)OCC21 (stereo not drawn) | 13.4
64 | COc1ccc2[nH]cc(CCN)c2c1 | -1.9
65 | CC(=O)NCCc1c[nH]cn1 | 3.8
66 | Nc1nccc(O)n1 | 14.5
67 | O=Cc1c[nH]c2cc(Cl)ccc12 | 6.4
68 | CCOC(=O)c1c(C=O)c(C)n(-c2ccccc2)c1C | 2.9
69 | Cn1c(=O)c2[nH]cnc2n(C)c1=O | 2.3
70 | Nc1c(C(=O)NCC(O)c2ccccc2)cnn1-c1ccccc1 (stereo not drawn) | 35.4
71 | CCOC(=O)c1cc(-c2ccccc2)c2cccc(O)c2c1 | 60.2
72 | Nc1ncncc1C=O | 20.7
73 | O=C(O)c1cc2ccccc2s1 | 4.5
74 | Nc1ncccc1CO | -0.5
75 | CCOC(=O)c1[nH]c2cc(Cl)ccc2c1/C=N/c1ccccc1 | 3.7
76 | CC(C(=O)O)c1ccc2cc(OS(C)(=O)=O)ccc2c1 (stereo not drawn) | 17

tested on: not listed separately; assay: Solubility of the compound; type: physicochemical

Row | SMILES | solubility
77 | Nc1[nH]c2cc(Cl)ccc2c1C(=O)N1CCOCC1 | Soluble

tested on: Streptococcus pyogenes; assay: Induction of aggregation of NT-647 labeled Streptococcus pyogenes His-tagged SrtA deltaN81 mutant expressed in Escherichia coli BL21(DE3) by microscale thermophoresis method

Row | SMILES | Activity
78 | Nc1[nH]c2cc(Cl)ccc2c1C(=O)N1CCOCC1 | inactive

tested on: Streptococcus pyogenes; assay: Inhibition of Streptococcus pyogenes SrtA deltaN81 mutant expressed in Escherichia coli BL21(DE3) at 10 uM using Abz-LPETA-Dap(Dnp) as substrate preincubated for 10 mins followed by substrate addition measured every min for 2.5 hrs by fluorimetric assay relative to control

Row | SMILES | inhibition [%]
79 | Nc1[nH]c2ccccc2c1C(=O)NCCc1ccc(Cl)cc1Cl | > 50
80 | O=C(O)CCC(=O)c1ccc2ccccc2c1 | > 50
81 | Nc1[nH]c2cc(Cl)ccc2c1C(=O)N1CCOCC1 | > 50
82 | Nc1[nH]c2cc(Cl)ccc2c1C(=O)NCCc1ccc(Cl)cc1 | > 50
83 | COc1cccc2c3c(ccc12)NC(=O)CC3 | > 50
84 | COc1ccc(C(O)c2[nH]c3ccccc3c2CCN)cc1 (stereo not drawn) | > 50
85 | CCOC(=O)c1[nH]c2cc(Cl)ccc2c1C#Cc1ccccc1 | > 50
86 | CCOC(=O)c1cc(-c2ccccc2)c2cccc(O)c2c1 | > 50

tested on: Staphylococcus aureus; assay: Inhibition of […] SrtA deltaN59 mutant expressed in Escherichia coli BL21(DE3) at 100 uM using Abz-LPETG-Dap(Dnp) as substrate preincubated for 10 mins followed by substrate addition measured every min for 2.5 hrs by fluorimetric assay

Row | SMILES | inhibition
87 | Nc1[nH]c2cc(Cl)ccc2c1C(=O)N1CCOCC1 | inactive

tested on: not listed separately; assay: Binding affinity to NT-647 labeled Streptococcus pyogenes His-tagged SrtA deltaN81 mutant expressed in Escherichia coli BL21(DE3) by microscale thermophoresis method

Row | SMILES | Kd [µM]
88 | Nc1[nH]c2cc(Cl)ccc2c1C(=O)N1CCOCC1 | 60
